Source: PMC7206119, “RIP1 inhibition blocks inflammatory diseases but not tumor growth or metastases” (Cell Death and Differentiation, 2019)

Legend:
Experiment in all cases: biochemical
Set-up in all cases: DiscoverX kinase panel, active-site competition binding (KINOMEscan type), percent of control at one concentration
Conditions in all cases: competition binding, percent of control
ALK(L1196M) = ALK(L1196M) (Homo sapiens, UniProt Q9UM73, L1196M)
PIM2 = PIM2 (Homo sapiens, UniProt Q9P1W9)
[1] = biological target: T1, RSK1(Kin.Dom.2-C-terminal) (Homo sapiens, UniProt Q15418)
T1 construct: gene RPS6KA1; Kin.Dom.2-C-terminal

TRPM6 = TRPM6 (Homo sapiens, UniProt Q9BX84)
FLT3-autoinhibited = FLT3-autoinhibited (Homo sapiens, UniProt P36888)
[2] = biological target: T2, ABL1(H396P)-phosphorylated (Homo sapiens, UniProt P00519, H396P)
T2 construct: phosphorylated

FGFR1 = FGFR1 (Homo sapiens, UniProt P11362)
[3] = biological target: T3, RPS6KA4(Kin.Dom.1-N-terminal) (Homo sapiens, UniProt O75676)
T3 construct: Kin.Dom.1-N-terminal

CDK8 = CDK8 (Homo sapiens, UniProt P49336)
GRK4 = GRK4 (Homo sapiens, UniProt P32298)
[4] = biological target: T4, RSK4(Kin.Dom.2-C-terminal) (Homo sapiens, UniProt Q9UK32)
T4 construct: gene RPS6KA6; Kin.Dom.2-C-terminal

FLT4 = FLT4 (Homo sapiens, UniProt P35916)
LRRK2(G2019S) = LRRK2(G2019S) (Homo sapiens, UniProt Q5S007, G2019S)
TYRO3 = TYRO3 (Homo sapiens, UniProt Q06418)
ARK5 = biological target: T5, ARK5 (Homo sapiens, UniProt O60285)
T5 construct: gene NUAK1

MINK = biological target: T6, MINK (Homo sapiens, UniProt Q8N4C8)
T6 construct: gene MINK1

[5] = biological target: EGFR(L747-E749del, A750P) (Homo sapiens, UniProt P00533, A750P/DEL747-749)
[6] = biological target: T7, ABL1(Y253F)-phosphorylated (Homo sapiens, UniProt P00519, Y253F)
T7 construct: phosphorylated

PDPK1 = PDPK1 (Homo sapiens, UniProt O15530)
EGFR(E746-A750del) = EGFR(E746-A750del) (Homo sapiens, UniProt P00533, DEL746-750)

Chain of LRRK2(G2019S) (Q5S007 whole entry G2019S): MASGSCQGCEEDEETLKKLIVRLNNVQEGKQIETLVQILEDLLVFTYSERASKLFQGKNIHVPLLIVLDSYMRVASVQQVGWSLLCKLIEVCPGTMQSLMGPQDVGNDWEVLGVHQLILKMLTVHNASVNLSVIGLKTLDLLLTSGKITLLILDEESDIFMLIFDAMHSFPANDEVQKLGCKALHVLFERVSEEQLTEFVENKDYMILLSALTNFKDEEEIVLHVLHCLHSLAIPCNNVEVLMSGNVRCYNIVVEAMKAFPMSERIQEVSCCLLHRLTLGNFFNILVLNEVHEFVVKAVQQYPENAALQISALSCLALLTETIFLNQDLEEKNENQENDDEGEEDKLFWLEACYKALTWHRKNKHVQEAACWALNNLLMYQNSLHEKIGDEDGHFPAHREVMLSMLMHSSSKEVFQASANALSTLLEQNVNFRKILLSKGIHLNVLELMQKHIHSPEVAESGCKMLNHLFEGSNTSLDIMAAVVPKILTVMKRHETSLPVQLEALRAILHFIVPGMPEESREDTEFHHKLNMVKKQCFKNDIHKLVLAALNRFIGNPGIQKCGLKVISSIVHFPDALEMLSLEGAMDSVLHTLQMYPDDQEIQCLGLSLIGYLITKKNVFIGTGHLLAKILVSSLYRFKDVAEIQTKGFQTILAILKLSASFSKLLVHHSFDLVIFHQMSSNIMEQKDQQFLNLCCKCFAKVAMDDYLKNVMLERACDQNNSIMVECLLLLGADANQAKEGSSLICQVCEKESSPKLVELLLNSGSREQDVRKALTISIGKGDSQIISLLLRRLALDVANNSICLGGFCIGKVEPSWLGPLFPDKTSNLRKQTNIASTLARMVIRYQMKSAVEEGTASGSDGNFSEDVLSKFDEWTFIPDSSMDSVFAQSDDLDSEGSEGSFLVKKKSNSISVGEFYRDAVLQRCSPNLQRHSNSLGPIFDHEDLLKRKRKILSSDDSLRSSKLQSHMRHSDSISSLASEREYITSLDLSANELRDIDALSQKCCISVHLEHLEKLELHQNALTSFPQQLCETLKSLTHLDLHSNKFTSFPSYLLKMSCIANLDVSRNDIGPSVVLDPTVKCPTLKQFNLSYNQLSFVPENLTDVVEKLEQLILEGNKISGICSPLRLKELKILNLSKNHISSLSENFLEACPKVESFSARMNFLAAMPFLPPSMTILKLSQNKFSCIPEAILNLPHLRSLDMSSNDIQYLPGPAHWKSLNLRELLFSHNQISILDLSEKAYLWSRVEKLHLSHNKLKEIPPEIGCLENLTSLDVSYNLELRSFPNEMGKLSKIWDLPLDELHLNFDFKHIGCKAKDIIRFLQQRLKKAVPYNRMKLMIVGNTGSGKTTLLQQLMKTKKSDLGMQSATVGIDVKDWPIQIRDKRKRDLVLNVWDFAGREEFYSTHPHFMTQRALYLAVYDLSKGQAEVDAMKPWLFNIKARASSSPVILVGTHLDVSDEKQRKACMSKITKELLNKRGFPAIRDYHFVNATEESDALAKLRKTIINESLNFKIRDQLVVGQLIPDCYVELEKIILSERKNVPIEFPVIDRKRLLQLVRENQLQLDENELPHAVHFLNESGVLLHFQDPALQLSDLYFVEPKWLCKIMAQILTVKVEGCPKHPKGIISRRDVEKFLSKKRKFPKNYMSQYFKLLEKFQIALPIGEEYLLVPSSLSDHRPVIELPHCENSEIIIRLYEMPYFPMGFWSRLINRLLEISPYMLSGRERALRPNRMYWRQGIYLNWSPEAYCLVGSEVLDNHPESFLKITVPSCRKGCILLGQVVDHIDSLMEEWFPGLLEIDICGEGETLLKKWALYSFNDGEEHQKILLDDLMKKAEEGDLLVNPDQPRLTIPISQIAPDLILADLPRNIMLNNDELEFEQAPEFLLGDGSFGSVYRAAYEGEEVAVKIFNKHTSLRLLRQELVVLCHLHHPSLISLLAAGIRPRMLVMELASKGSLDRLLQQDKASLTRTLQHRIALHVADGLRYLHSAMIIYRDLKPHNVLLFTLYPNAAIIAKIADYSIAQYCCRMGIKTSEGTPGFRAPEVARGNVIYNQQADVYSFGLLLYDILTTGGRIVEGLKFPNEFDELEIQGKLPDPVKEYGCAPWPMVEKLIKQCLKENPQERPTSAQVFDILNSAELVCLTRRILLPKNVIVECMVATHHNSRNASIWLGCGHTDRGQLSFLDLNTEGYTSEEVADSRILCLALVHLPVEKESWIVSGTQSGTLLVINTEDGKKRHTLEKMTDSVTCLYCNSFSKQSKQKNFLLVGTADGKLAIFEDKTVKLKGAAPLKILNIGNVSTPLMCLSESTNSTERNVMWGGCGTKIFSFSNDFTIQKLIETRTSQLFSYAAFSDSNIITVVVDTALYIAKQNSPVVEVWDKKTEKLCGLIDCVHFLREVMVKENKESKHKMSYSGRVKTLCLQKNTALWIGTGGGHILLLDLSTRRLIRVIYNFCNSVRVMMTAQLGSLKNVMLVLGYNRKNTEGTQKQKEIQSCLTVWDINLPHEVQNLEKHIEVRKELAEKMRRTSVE
T3 sequence (O75676 whole entry): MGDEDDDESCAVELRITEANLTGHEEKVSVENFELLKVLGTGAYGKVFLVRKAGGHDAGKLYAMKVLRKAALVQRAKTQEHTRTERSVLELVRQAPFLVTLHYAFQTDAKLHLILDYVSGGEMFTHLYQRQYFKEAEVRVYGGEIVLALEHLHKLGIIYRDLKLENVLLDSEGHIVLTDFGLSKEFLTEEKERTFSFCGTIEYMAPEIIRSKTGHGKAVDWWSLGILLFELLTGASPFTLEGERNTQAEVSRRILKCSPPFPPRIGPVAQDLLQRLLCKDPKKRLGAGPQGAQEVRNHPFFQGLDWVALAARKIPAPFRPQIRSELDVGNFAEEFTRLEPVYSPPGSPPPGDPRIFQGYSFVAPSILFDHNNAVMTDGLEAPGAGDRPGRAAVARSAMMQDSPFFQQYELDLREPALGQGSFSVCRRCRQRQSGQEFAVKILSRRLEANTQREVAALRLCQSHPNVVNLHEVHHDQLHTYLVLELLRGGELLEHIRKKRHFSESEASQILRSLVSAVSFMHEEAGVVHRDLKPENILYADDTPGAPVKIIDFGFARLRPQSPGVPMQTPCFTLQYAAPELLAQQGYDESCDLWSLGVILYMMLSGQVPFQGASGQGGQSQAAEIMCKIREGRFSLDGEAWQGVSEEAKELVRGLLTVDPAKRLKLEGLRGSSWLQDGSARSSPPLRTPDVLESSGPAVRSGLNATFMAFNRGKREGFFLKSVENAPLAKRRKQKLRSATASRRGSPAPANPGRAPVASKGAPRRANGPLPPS
Chain of TYRO3 (Q06418 whole entry): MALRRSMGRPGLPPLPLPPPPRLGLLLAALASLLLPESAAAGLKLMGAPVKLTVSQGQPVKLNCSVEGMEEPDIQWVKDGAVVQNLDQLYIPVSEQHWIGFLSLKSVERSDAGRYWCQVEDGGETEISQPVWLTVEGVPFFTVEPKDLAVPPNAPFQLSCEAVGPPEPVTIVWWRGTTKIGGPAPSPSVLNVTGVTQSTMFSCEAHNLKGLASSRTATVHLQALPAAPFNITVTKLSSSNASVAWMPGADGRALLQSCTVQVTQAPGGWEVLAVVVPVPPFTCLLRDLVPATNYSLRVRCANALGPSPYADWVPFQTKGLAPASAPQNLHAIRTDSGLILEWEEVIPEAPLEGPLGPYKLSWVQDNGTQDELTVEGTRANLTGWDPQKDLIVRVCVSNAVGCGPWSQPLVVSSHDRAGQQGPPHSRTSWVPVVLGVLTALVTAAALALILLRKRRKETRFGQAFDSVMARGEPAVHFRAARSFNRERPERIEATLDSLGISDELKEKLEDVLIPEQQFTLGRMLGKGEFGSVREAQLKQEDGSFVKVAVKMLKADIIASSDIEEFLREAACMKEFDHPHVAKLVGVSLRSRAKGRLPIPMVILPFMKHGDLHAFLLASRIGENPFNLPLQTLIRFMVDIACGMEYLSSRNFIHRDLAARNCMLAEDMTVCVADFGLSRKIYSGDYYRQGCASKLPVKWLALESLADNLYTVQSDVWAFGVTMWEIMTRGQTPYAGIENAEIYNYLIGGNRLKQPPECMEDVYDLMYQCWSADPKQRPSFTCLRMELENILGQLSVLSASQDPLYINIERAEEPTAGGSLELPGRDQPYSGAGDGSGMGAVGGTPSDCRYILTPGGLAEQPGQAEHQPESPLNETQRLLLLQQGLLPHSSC
T5 sequence (O60285 whole entry): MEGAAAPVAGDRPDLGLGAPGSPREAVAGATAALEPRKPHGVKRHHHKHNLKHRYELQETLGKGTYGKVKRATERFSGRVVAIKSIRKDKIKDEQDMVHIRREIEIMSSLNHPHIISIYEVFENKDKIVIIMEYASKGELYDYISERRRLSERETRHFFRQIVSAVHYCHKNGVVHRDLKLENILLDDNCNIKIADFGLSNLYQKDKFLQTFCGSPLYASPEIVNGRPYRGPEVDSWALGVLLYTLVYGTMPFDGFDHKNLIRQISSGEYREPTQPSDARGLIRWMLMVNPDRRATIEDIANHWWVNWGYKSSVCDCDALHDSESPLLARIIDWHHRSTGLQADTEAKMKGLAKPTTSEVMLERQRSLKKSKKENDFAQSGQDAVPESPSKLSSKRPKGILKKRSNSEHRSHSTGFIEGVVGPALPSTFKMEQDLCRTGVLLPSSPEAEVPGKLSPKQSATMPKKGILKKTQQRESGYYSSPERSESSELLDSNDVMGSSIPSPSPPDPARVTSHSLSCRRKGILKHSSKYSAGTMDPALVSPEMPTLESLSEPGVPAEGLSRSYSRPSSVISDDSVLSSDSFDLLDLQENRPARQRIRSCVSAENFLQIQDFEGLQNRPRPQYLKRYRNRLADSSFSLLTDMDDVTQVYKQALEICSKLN

COc1cc2c(cn1)N(C)C(=O)[C@@H](NC(=O)c1nc3n(n1)[C@H](c1ccccc1)CC3)CC2 [GNE684, (S)-N-((S)-7-methoxy-1-methyl-2-oxo-2,3,4,5-tetrahydro-1H-pyrido[3,4-b]azepin-3-yl)-5-phenyl-6,7-dihydro-5H-pyrrolo[1,2-b][1,2,4]triazole-2-carboxamide]
remaining binding at 10 µM (ALK(L1196M)): 78%
remaining binding at 10 µM (PIM2): 71%
remaining binding at 10 µM [1]: 100%
remaining binding at 10 µM (TRPM6): 87%
remaining binding at 10 µM (FLT3-autoinhibited): 100%
remaining binding at 10 µM [2]: 92%
remaining binding at 10 µM (FGFR1): 92%
remaining binding at 10 µM [3]: 75%
remaining binding at 10 µM (CDK8): 97%
remaining binding at 10 µM (GRK4): 100%
remaining binding at 10 µM [4]: 95%
remaining binding at 10 µM (FLT4): 96%
remaining binding at 10 µM (LRRK2(G2019S)): 97%
remaining binding at 10 µM (TYRO3): 97%
remaining binding at 10 µM (ARK5): 94%
remaining binding at 10 µM (MINK): 100%
remaining binding at 10 µM [5]: 85%
remaining binding at 10 µM [6]: 100%
remaining binding at 10 µM (PDPK1): 91%
remaining binding at 10 µM (EGFR(E746-A750del)): 94%
